{
  "source": "PubChem BioAssay (NCI)",
  "assay_in_all_cases": "NCI-60 cell line screen, 48 h",
  "key": {"[1]": {"system": "IGROV1 ovarian"}, "[2]": {"system": "RXF 393 renal"}, "[3]": {"system": "UACC-257 melanoma"}, "[4]": {"system": "MCF7 breast"}, "[5]": {"system": "RPMI-8226 leukemia"}, "[6]": {"system": "A549 NSCLC"}, "[7]": {"system": "UACC-62 melanoma"}, "[8]": {"system": "SN12C renal"}, "[9]": {"system": "HT29 colon"}, "[10]": {"system": "HOP-62 NSCLC"}, "[11]": {"system": "HCC-2998 colon"}, "[12]": {"system": "SNB-75 CNS"}, "[13]": {"system": "KM12 colon"}, "[14]": {"system": "NCI-H226 lung"}, "[15]": {"system": "SF-295 CNS"}, "[16]": {"system": "HCT-15 colon"}, "[17]": {"system": "TK-10 renal"}, "[18]": {"system": "HCT-116 colon"}, "[19]": {"system": "ACHN renal"}},
  "note": "Several values for one entry are separate records, joined by “and”; a condition that tells them apart may be missing. Equal values may be shown once.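 Exposure lasted 48 hours, with cells grown in 96-well plates and compounds tested at five concentrations. GI50 = concentration required for 50% inhibition of growth. TGI: total growth inhibition.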",
  "data": [
    {"smiles": "CCCCCCCCCC[C@@H](O)[C@@H]1CC[C@@H]([C@@H]2CC[C@@H]([C@@H](O)CCCCCCCCCCC(O)CC3=CC(C)OC3=O)O2)O1", "note": "(some centres undefined)", "values": [
      {"measurement": "TGI", "setting": "[1]", "value": "> 10", "unit": "µM"},
      {"measurement": "TGI", "setting": "[2]", "value": "> 10", "unit": "µM"},
      {"measurement": "TGI", "setting": "[3]", "value": "> 10", "unit": "µM"},
      {"measurement": "TGI", "setting": "[4]", "value": "> 10", "unit": "µM"},
      {"measurement": "TGI", "setting": "[5]", "value": "> 10", "unit": "µM"},
      {"measurement": "TGI", "setting": "[6]", "value": "> 10", "unit": "µM"},
      {"measurement": "TGI", "setting": "[7]", "value": "> 10", "unit": "µM"},
      {"measurement": "TGI", "setting": "[8]", "value": "> 10000", "unit": "nM"},
      {"measurement": "TGI", "setting": "[9]", "value": "> 10", "unit": "µM"},
      {"measurement": "TGI", "setting": "[10]", "value": "> 10000", "unit": "nM"},
      {"measurement": "TGI", "setting": "[11]", "value": "> 10", "unit": "µM"},
      {"measurement": "TGI", "setting": "[12]", "value": "> 10000", "unit": "nM"},
      {"measurement": "TGI", "setting": "[13]", "value": "> 10", "unit": "µM"},
      {"measurement": "TGI", "setting": "[14]", "value": 6840, "unit": "nM"},
      {"measurement": "TGI", "setting": "[15]", "value": "> 10000", "unit": "nM"},
      {"measurement": "TGI", "setting": "[16]", "value": "> 10", "unit": "µM"},
      {"measurement": "TGI", "setting": "[17]", "value": "> 10", "unit": "µM"},
      {"measurement": "TGI", "setting": "[18]", "value": "> 10", "unit": "µM"},
      {"measurement": "TGI", "setting": "[19]", "value": "> 10", "unit": "µM"}
    ]},
    {"smiles": "Cc1c2cc[n+](C)cc2c(C)c2c1[nH]c1ccccc12", "values": [
      {"measurement": "TGI", "setting": "[1]", "value": "78.1 µM and 75.3 µM"},
      {"measurement": "TGI", "setting": "[2]", "value": "62 µM and 36.7 µM"},
      {"measurement": "TGI", "setting": "[3]", "value": "37.5 µM and 43.2 µM"},
      {"measurement": "TGI", "setting": "[4]", "value": "21.9 µM and 39.5 µM"},
      {"measurement": "TGI", "setting": "[5]", "value": "88.7 µM and 92 µM"},
      {"measurement": "TGI", "setting": "[6]", "value": "5.55 µM and 8.83 µM"},
      {"measurement": "TGI", "setting": "[7]", "value": "22.5 µM and 27.4 µM"},
      {"measurement": "TGI", "setting": "[8]", "value": "1290 nM and 1200 nM"},
      {"measurement": "TGI", "setting": "[9]", "value": "62.7 µM and 71.6 µM"},
      {"measurement": "TGI", "setting": "[10]", "value": "2640 nM and 2760 nM"},
      {"measurement": "TGI", "setting": "[11]", "value": "12.6 µM and 12.9 µM"},
      {"measurement": "TGI", "setting": "[12]", "value": "755 nM and 779 nM"},
      {"measurement": "TGI", "setting": "[13]", "value": 12.1, "unit": "µM"},
      {"measurement": "TGI", "setting": "[14]", "value": "1700 nM and 1610 nM"},
      {"measurement": "TGI", "setting": "[15]", "value": "1710 nM and 2080 nM"},
      {"measurement": "GI50", "setting": "[16]", "value": "88 µM and 19.4 µM"},
      {"measurement": "TGI", "setting": "[16]", "value": "> 100 µM and 99 µM"},
      {"measurement": "TGI", "setting": "[17]", "value": "> 100", "unit": "µM"},
      {"measurement": "TGI", "setting": "[18]", "value": "35.2 µM and 33.6 µM"},
      {"measurement": "TGI", "setting": "[19]", "value": "> 100", "unit": "µM"}
    ]}
  ]
}
